Laboratory results as given in paper PMC7567314 (Science (New York, N.Y.), 2020).

Assays:
[1] = system: untransfected HEK293 cells (adenylyl cyclase); assay: Forskolin cAMP concentration-response with or without Ca2+; format: cell-based, human; conditions: 0.5 mM CaCl2
[2] = target: wild-type MC4R stably expressed in HEK293 cells (Homo sapiens, UniProt P32245); format: binding; conditions: 10 μM Ca2+; wild-type receptor; against 80 pM 125I-NDP-MSH
Sequence of wild-type MC4R stably expressed in HEK293 cells (P32245 whole entry): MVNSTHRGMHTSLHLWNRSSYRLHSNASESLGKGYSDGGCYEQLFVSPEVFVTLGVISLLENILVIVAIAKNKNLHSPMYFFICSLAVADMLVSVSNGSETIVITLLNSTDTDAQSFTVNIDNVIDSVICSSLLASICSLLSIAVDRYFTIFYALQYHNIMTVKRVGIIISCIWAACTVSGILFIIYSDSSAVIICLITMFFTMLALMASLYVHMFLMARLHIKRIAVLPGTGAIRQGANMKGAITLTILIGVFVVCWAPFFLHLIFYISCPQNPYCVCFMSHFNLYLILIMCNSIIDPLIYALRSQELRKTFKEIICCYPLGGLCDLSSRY

Molecule	Ca2+ dependence of non-receptor-mediated activation of adenylyl cyclase [1]	effect of Ca2+ on Ki [2]
C=C[C@@]1(C)CC(=O)[C@]2(O)[C@@]3(C)[C@@H](O)CCC(C)(C)[C@@H]3[C@H](O)[C@H](OC(C)=O)[C@@]2(C)O1 [forskolin]	no Ca^2+ dependence	
agouti-related protein (SSRRCVRLHESCLGQQVPCCDPCATCYCRFFNAFCYCRKLGTAMNPCSRT; UniProt O00253 83-132, looked up, fragment) [AgRP]		only marginally lowered
